This experiment has as its target NTS1R (Homo sapiens, UniProt P30989). Description: Flow cytometric (FC) association and dissociation kinetics, suspended CHO-hNTS1R cells. Particulars: FC (suspension); for koff: 23 °C, read-out: koff [min^–1] (converted); for kon: calculated from kobs, koff and ligand concentration, read-out: kon [min^–1 nM^–1] (converted). Type of experiment: binding. The protocol: Flow cytometry-based NTS1R binding studies were performed with intact CHO-hNTS1R (all kind of experiments) and HT-29 cells (only saturation binding) using a BD FACSCanto II (Becton Dickinson, Heidelberg, Germany), equipped with an argon laser (488 nm) and a red diode laser (640 nm), and a BD High Throughput Sampler (HTS unit) for microtiter plates. Saturation and competition binding experiments were performed in triplicate in 96-well polypropylene plates (Brand 701330, Wertheim, Germany) using the HTS unit for sample injection. Association and dissociation experiments were performed in duplicate in 5 mL polypropylene tubes (VWR, Radnor) using the standard injection port of the flow cytometer. The following gain settings for forward and sideward scatter were applied: FSC, 0 V; SSC, 252 V. Fluorescence was recorded using the PE-channel (excitation: 488 nm, emission: 585 ± 21) nm with a PMT gain of 330–400 V. For measurements using the HTS unit, 45 μL of the sample were injected with a speed of 1.5 μL/s. For measurements, requiring the use of the standard injection port, the medium flow rate ([…]) was used. Measurements were stopped after 30 s (HTS unit) or after counting of 500–3000 gated events (standard injection port).
Cells were seeded in T75 culture flasks 3–4 days (CHO-hNTS1R cells) or 5–6 days (HT-29 cells) prior to the experiment. On the day of the experiment, cells were detached by trypsinization, suspended in DPBS1 and centrifuged at 200g at rt for 5 min. […]
5 mL polypropylene tubes were prefilled with 2000 μL of cell suspension and DMSO/H2O 2:8 v/v (20 μL) were added (determination of total binding). […] Specific binding data, obtained by subtracting triplicate mean values of unspecific binding from triplicate mean values of total binding, were plotted against the time and analyzed by a three-parameter equation describing an exponential rise to a maximum (one-phase association, Y0 constrained to zero, GraphPad Prism 5) to yield the observed association rate constant kobs. […]
5 mL polypropylene tubes were prefilled with 2000 μL of cell suspension. […] After different periods of time (1–240 min), sample aliquots were measured by placing the tube in the injection port of the flow cytometer. Specific binding data, obtained by subtracting triplicate mean values of unspecific binding from triplicate mean values of total binding, were plotted against the time and analyzed by a three-parameter equation describing an incomplete monophasic exponential decline (one phase decay, GraphPad Prism 5) to obtain koff values. […]
The kon and Kd(kin) values were calculated as described for high-content imaging binding experiments.

NTS1R, sequence (P30989 whole entry): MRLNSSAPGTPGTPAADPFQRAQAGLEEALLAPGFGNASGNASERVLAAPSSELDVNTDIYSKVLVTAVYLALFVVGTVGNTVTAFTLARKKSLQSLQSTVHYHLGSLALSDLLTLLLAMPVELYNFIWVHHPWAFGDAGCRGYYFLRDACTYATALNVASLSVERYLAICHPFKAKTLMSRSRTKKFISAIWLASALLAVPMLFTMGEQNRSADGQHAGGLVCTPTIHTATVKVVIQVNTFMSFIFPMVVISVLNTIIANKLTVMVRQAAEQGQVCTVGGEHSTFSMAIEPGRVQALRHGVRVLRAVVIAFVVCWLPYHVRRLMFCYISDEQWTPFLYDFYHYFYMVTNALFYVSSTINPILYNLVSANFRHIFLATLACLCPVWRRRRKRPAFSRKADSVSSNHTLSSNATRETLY

What is called koff is the rate constant with which the complex falls apart. What is called kon is the rate constant with which the complex forms. Take `CCC(=O)NCCCCNC(=O)NC(=N)NCCC[C@H](NC(=O)[C@@H]1CCCN1C(=O)[C@@H](NC(=O)CCc1cn(CCCNC(=O)CCC#Cc2ccc3c(c2)C(C)(C)C2=C4C=C5C6=[N+](CCC5OC4CCN23)c2ccc(S(=O)(=O)[O-])cc2C6(C)C)nn1)C1CCNCC1)C(=O)N[C@@H](CCCNC(=N)N)C(=O)N1CCC[C@H]1C(=O)N[C@H](C(=O)N[C@H](C(=O)N[C@@H](CC(C)C)C(=O)O)[C@@H](C)CC)C(C)(C)c1ccc(O)cc1` (stereo partly drawn) [Compound 18, N^α-(3-(N-(1-(8-Sulfonato-5,5,27,27-tetramethyl-16-oxa-20-aza-12-azoniaheptacyclo[15.11.0.03,15.04,12.06,11.020,28.021,26]octacosa-1(28),2,4(12),6(11),7,9,21(26),22,24-nonaen-24-yl)-5-oxopentyn-5-yl)-1-aminoprop-3-yl-1H-1,2,3-triazol-4-yl)propanoyl)-2-(piperidin-4-yl)-Gly-Pro-N^ω-[(4-(N-propanoyl)aminobutyl)aminocarbonyl]Arg-Arg-Pro-β,β-dimethyl-L-Tyr-Ile-Leu Tris(hydrotrifluoroacetate)]: the koff was 0.0004 s⁻¹ and the kon is 2.67e+06 M⁻¹ s⁻¹.
Taken in the same sequence, the figures for `CCC(=O)NCCCCNC(=O)N=C(N)NCCC[C@H](NC(=O)[C@@H]1CCCN1C(=O)[C@@H](NC(=O)CCc1cn(CCCNC(=O)c2ccc(-c3c4ccc(=[N+](C)C)cc-4oc4cc(N(C)C)ccc34)c(C(=O)[O-])c2)nn1)C1CCNCC1)C(=O)N[C@@H](CCCNC(=N)N)C(=O)N1CCC[C@H]1C(=O)N[C@@H](Cc1ccc(O)cc1)C(=O)N[C@H](C(=O)N[C@@H](CC(C)C)C(=O)O)[C@@H](C)CC` [Compound 13, N^α-(3-(1-N-((1-Carboxylato-2-(6-(dimethylamino)-3-(dimethyliminio)-3H-xanthen-9-yl)phen-5-yl)1-oxomethyl)aminoprop-3-yl-1H-1,2,3-triazol-4-yl)propanoyl)-2-(piperidin-4-yl)-Gly-Pro-N^ω-[(4-(N-propanoyl)aminobutyl)aminocarbonyl]Arg-Arg-Pro-Tyr-Ile-Leu Tris(hydrotrifluoroacetate)] were 0.000333 s⁻¹ and 8e+06 M⁻¹ s⁻¹.

The values above are taken from publication PMC11440508, “Dually Labeled Neurotensin NTS1R Ligands for Probing Radiochemical and Fluorescence-Based Binding Assays” (Journal of Medicinal Chemistry, 2024).
